Experimental data taken from patent US20230158063A1, “AIRWAY […] THERAPY TO TREAT VIRAL R[…]” (THE TRUSTEES OF INDIANA UNIVERSITY, priority 2020, published 2023).

Tested on: primary normal human airway epithelial (HAE) cells
Test: Intracellular pH of HAE cells by pH-sensitive dye fluorescence microscopy
Type: cell-based
Settings: HAE cells pre-loaded with 1.25 μM BCECF-AM; normalized to pre-treatment; n=3; ZnCl2 at 100 μM

With `[Cl-].[Cl-].[Zn+2]` [ZnCl2, zinc chloride] the “BCECF-AM fluorescence intensity (increases as pH increases)” value was “essentially eliminating fluorescence”.
